Source: the supplement of paper PMC10307832

Experiments:
Assay in all cases: relative viability (nuclei count vs DMSO), 5 days (fraction); higher = more cells survive
[1] = compound: O[C@H]1CC[C@H](Nc2ncc3nc(Nc4c(F)cc(F)cc4F)n([C@H]4CCOC4)c3n2)CC1 [Tanzisertib] + Cc1cc(Nc2cc(N3CCN(C)CC3)nc(Sc3ccc(NC(=O)C4CC4)cc3)n2)n[nH]1 [Tozasertib] (partner 0.1 µM)
How it was run: (§1)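 Relative viability was taken as the ratio of nuclei in treated wells to nuclei in vehicle wells. Lung cancer cell lines in 1536-well plates received compounds by pin tool one day after seeding, either one drug alone or a fixed anchor-drug dose plus five library-drug doses (not always all listed) in √10 steps. Nuclei were counted on 4× images after 5 days of treatment, and values are medians of duplicate plates.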

[2] = compound: C1CNCCC1C2=CC(=NN2)C3=CC=NC=C3 + Nc1nc2[nH]cc(CCc3ccc(C(=O)N[C@@H](CCC(=O)O)C(=O)O)cc3)c2c(=O)[nH]1 [Pemetrexed] (partner 0.2 µM)
How it was run: as §1

[3] = compound: O[C@H]1CC[C@H](Nc2ncc3nc(Nc4c(F)cc(F)cc4F)n([C@H]4CCOC4)c3n2)CC1 [Tanzisertib] + O=C(c1cc(Cc2n[nH]c(=O)c3ccccc23)ccc1F)N1CCN(C(=O)C2CC2)CC1 [Olaparib] (partner 8 µM)
How it was run: as §1

[4] = compound: C1CNCCC1C2=CC(=NN2)C3=CC=NC=C3 + O=C(CCCCCCC(=O)Nc1ccccc1)NO [Vorinostat] (partner 1 µM)
How it was run: as §1

| Cell Line | relative viability ([1]; first compound 0.08 µM) | relative viability ([1]; first compound 0.253 µM) | relative viability ([1]; first compound 0.8 µM) | relative viability ([1]; first compound 2.53 µM) | relative viability ([1]; first compound 8 µM) | relative viability ([2]; first compound 0.08 µM) | relative viability ([2]; first compound 0.8 µM) | relative viability ([2]; first compound 2.53 µM) | relative viability ([2]; first compound 8 µM) | relative viability ([3]; first compound 0.08 µM) | relative viability ([3]; first compound 0.253 µM) | relative viability ([3]; first compound 0.8 µM) | relative viability ([3]; first compound 2.53 µM) | relative viability ([3]; first compound 8 µM) | relative viability ([4]; first compound 0.08 µM) | relative viability ([4]; first compound 0.8 µM) | relative viability ([4]; first compound 2.53 µM) | relative viability ([4]; first compound 8 µM) |
| --- | --- | --- | --- | --- | --- | --- | --- | --- | --- | --- | --- | --- | --- | --- | --- | --- | --- | --- |
| NCI-H2009 | 0.804 | 0.72 | 0.775 | 0.754 | 0.661 | 0.958 | 1.05 | 0.992 | 1.03 | 0.634 | 0.734 | 0.743 | 0.73 | 0.752 | 0.754 | 0.693 | 0.8 | 0.728 |
| ChaGo-K-1 | 0.251 | 0.227 | 0.216 | 0.218 | 0.217 | 0.262 | 0.261 | 0.269 | 0.298 | 0.511 | 0.422 | 0.453 | 0.45 | 0.438 | 0.731 | 0.806 | 0.764 | 0.765 |
| COR-L 105 | 0.386 | 0.366 | 0.323 | 0.388 | 0.331 | 1.19 | 1.19 | 1.12 | 1.06 | 0.729 | 0.631 | 0.792 | 0.726 | 0.816 | 0.805 | 0.916 | 1.07 | 0.964 |
| NCI-H2170 | 0.881 | 0.789 | 0.669 | 0.717 | 0.651 | 0.269 | 0.283 | 0.288 | 0.266 | 0.669 | 0.569 | 0.601 | 0.604 | 0.53 | 0.658 | 0.825 | 0.771 | 0.762 |
| A549 | – | – | – | – | – | – | – | – | – | 0.297 | 0.397 | 0.344 | 0.35 | 0.0802 | – | – | – | – |
